From patent publication US12285011B2, “Insecticidal formulation for vector and pest control with increased contact efficacy” (DISCOVERY PURCHASER CORPORATION, priority 2018, dated 2025)
Read-outs that look alike come from different tables or passages of the source.

Assay: Water solubility at pH 7 (HPLC-MS)
Format: physicochemical
Conditions: thermodynamic from solid
Procedure: In another preferred embodiment of the invention the insecticidal active ingredient—matrix particles comprise one insecticidal active ingredient with the above indicated physicochemical properties. The melting points according to the invention are measured under standard conditions (1 atmosphere). Water solubility are indicated in percentage referring to the quotient of (g) gram insecticidal active ingredient/100 ml water. Water solubility is preferably measured with liquid chromatography e.g. with a HPLC-MS system (at 20° C., 1 atmosphere and pH 7, see also example 1 as a reference).
The reported water solubilities as shown in table 1 are determined as follows: Preparation of calibration standards: A 1000 ppm solution of the analyte in acetonitrile is prepared and from this at least three calibration points are obtained by dilution with acetonitrile going down to 0.01 mg/L, if needed. Sample Preparation: Two cavities of a deepwell are filled each with about 0.6 mg of homogenized sample and 500 μL of a pH 7 phosphate buffer is added. A glass pearl is added to each cavity, the deepwell is sealed and shaken for at least 24 h at 1600 rpm at 23° C. After the shaking procedure the solution is filtered. Aliquots of the filtrates are analysed via a HPLC-MS system with DAD and MS detection. The peak areas of all selected single DAD and ion traces are taken for the calculations. The calculation is done by external calibration against the areas of the standard samples (linear regression). The mean of all calculated values gives the water solubility of the active ingredient.

[1] = aqueous buffer, pH 7 phosphate buffer, shaken at least 24 h at 23° C., technical grade active ingredient, read-out: water solubility at pH 7

solubility [1] [µg/mL] | SMILES | solubility (23 °C, pH 7, aqueous buffer) [µg/mL]
< 0.01 | CN(C(=O)c1cc(-c2cnn(-c3c(Cl)cc(C(F)(C(F)(F)F)C(F)(F)F)cc3Cl)c2)cnc1Cl)C1CC1 [2-chloro-N-cyclopropyl-5-{1-[2,6-dichloro-4-(1,1,1,2,3,3,3-heptafluoropropan-2-yl)phenyl]-1H-pyrazol-4-yl}-N-methylnicotinamide] | 
 | CCN1OC[C@@H](NC(=O)c2ccc(C3=NO[C@@](c4cc(Cl)c(F)c(Cl)c4)(C(F)(F)F)C3)cc2C)C1=O [4-[(5S)-5-(3,5-dichloro-4-fluorophenyl)-5-(trifluoromethyl)-4,5-dihydro-1,2-oxazol-3-yl]-N-[(4R)-2-ethyl-3-oxo-1,2-oxazolidin-4-yl]-2-methylbenzamide] | < 0.01
< 0.01 | CN(C(=O)c1ccccc1)c1cccc(C(=O)Nc2c(Br)cc(C(F)(C(F)(F)F)C(F)(F)F)cc2C(F)(F)F)c1F [broflanilide, 3-[benzoyl(methyl)amino]-N-[2-bromo-4-(1,1,1,2,3,3,3-heptafluoropropan-2-yl)-6-(trifluoromethyl)phenyl]-2-fluorobenzamide, reference compound] | 
